From patent US7083969B2, “Serratia marcescens strain” (Korea Research Institute of Bioscience and Biotechnology, priority 1997, dated 2006)

How the values were obtained:
[1] = tested on: CD8 T cell (cytotoxic T cell); assay: Selective cytotoxicity: proportion of CD8 T cells after treatment; format: cell-based, mice; conditions: proportion of the cells
From the text: (§1) Germ-free test animals, mice BDF1 and B6C3F1, obtained from Genetic Resources Center, Korean Research Institute of Bioscience and Biotechnology in the Korean Institute of Science and Technology, were used for the assay of the immunosuppressive activity of prodigiosin. […] At such concentrations as show no cytotoxic effects, prodigiosin cannot suppress the immune response of B lymphocytes. […] This selective immunosuppression for T lymphocytes is not ascribed to the selective cytotoxicity for T lymphocytes. The same immunosuppression results as in the ex vivo experiments were obtained in in vivo experiments. When T lymphocyte activity was measured by use of a graft versus host reaction and a T cell-dependent antibody producing reaction, the prodigiosin suppressed the immune response, but exerted no toxicity on animals. Therefore, the immunosuppressive activity of the prodigiosin is thought to be attributed to the selective suppression for T lymphocyte activity.
Whether the selective immunosuppression of prodigiosin for T cells is attributed to the selective cytotoxicity for T cells or not was assayed by measuring the proportion of the cells. On the third day after treatment of the immune cells with prodigiosin, the number of the cells was counted. Because T lymphocytes consist of CD4 T cell (helper T cell) and CD8 T cell (cytotoxic T cell), the proportion of T and B lymphocytes was calculated in this Example.

T lymphocyte = assay: Concanavalin A-induced T lymphocyte proliferation (DNA synthesis); format: cell-based, mice; conditions: for Proliferation (%) T cell: three days
From the text: as §1
(§2) Three standard substances which induce lymphocytes to proliferate were employed to measure the effect of the prodigiosin on proliferation of lymphocytes. 5 μg/ml of lipopolysaccharide were used to induce B lymphocyte to proliferate, 5 μg/ml of Concanavalin A for T lymphocyte and 5 μg/ml of Pokeweed mitogen for B and T lymphocytes, both. Prodigiosin was added, together with the proliferation-inducing substance. Three days after the addition, the proliferation effect was monitored by measuring the amount of DNA synthesized. In order to exclude the cytotoxicity of prodigiosin, it was used at a concentration of not more than 100 nM. In Table 2, the proliferation percentages mean the proliferated amounts of prodigiosin-treated lymphocytes relative to that of an non-treated group. As shown, the suppression percentage effected by prodigiosin in amounts of 30–100 nM reaches up to 96–98% for the T lymphocyte induced by concanavalin A while the proliferation of B lymphocyte induced by lipopolysaccharide and the proliferation of B/T lymphocytes induced by pokeweed mitogen are suppressed to the extent of 13–19% and 45–83%, respectively.

[2] = tested on: Immune cells separated from the spleens; assay: Viability of spleen immune cells cultured in vitro (cytotoxicity); format: cell-based, mice; conditions: ex vivo experiments
From the text: as §1
(§3) Immune cells were separated from the spleens of the germ-free animals and cultured in vitro. The cultures were treated with the prodigiosin at various amounts from 3 nM to 30,000 nM and the viability of the cells were measured from the first day to the third day after the treatment. Based on the initial viability of the immune cells, the viabilities of the test groups were calculated. […] So, subsequent experiments for immunoactivity were carried out at not more than 100 nM in order to exclude the cytotoxicity and to measure only the immunosuppressive effect of the prodigiosin.

[3] = as above; format: cell-based, mice; conditions: mouse, immune cells separated from the spleen, cultured in vitro
From the text: as §1, §3

B and T lymphocytes [4] = assay: Pokeweed mitogen-induced B and T lymphocyte proliferation (DNA synthesis); format: cell-based, mice; conditions: for Proliferation (%) B/T cells: three days
From the text: as §1, §2

B and T lymphocytes [5] = assay: T-cell dependent antibody producing reaction in vitro (sheep red blood cells); format: cell-based, mice
From the text: as §1
The influence of prodigiosin on the functions of lymphocytes was measured using three reaction systems. First, the ability of B lymphocyte to proliferate in response to lipopolysaccharide stimulus was assessed. For this, on the third day after stimulation with lipopolysaccharide, the antibody production of the B lymphocyte was measured. When B lymphocytes are stimulated with lipopolysaccharide, they can produce antibodies without the aid of T lymphocyte. Second, a mixed lymphocyte reaction was induced in order to assess the effect on T-cell response. The reaction needs no aids from the B lymphocyte. On the third day after two types of heteroimmune cells, which are different from each other in histocompatibility antigen, were mixed to stimulate the activity of T lymphocytes, the T-cell response-was assessed. Third, the T-cell dependent antibody producing reaction was utilized to assess the effect of prodigiosin on the simultaneous immune response of both of the B and T lymphocytes. This reaction requires the functions of B and T lymphocytes, simultaneously. On the fifth day after immunization of the lymphocytes with the red blood cells of sheep, their antibody production ability was assessed.
In Table 3, the values are relative to the immune response of the lymphocytes untreated with prodigiosin.

T lymphocytes = assay: Graft versus host reaction in vivo (lymphatic node weight); design: species or system BDF1 mice; conditions: for Wt. (mg) of Lymphatic node: sixth day after transplantation
From the text: as §1
A graft versus host reaction was utilized for the in vivo assay of prodigiosin's immunosuppression. The graft versus host reaction enables an assessment of the immune response of T lymphocytes. On the sixth day after transplantation of the T lymphocytes of BDF1 mice different in histocompatibility antigen, the lymphatic nodes were measured for weight, thereby assessing the immune response of T lymphocyte to the grafted heteroantigens. The prodigiosin was peritoneally injected at a dose of 30–100 mg per kg of body weight for five days while cyclophosphamide, as a positive control, was peritoneally injected at a dose of 100 mg/kg for five days. The body weights of the injected mice were measured to compare the toxicity of prodigiosin with that of cyclophosphamide. […] As for the body weight, it was not changed in the mice injected with prodigiosin at an effective concentration.

With `CCCCCC1=C/C(=C/c2[nH]c(-c3ccc[nH]3)cc2OC)N=C1C` [Prodigiosin, prodigiosin] the “Proliferation (%) CD8 T cell” value ([1]; 3 nM, third day after treatment) was 13%, the “Proliferation (%) CD8 T cell” value ([1]; 10 nM, third day) was 13% and the “Proliferation (%) CD8 T cell” value ([1]; 30 nM, third day) was 12%. For the same molecule, the “Proliferation (%) CD8 T cell” value ([1]; 100 nM, third day) was 10%, the “Proliferation (%) T cell” value (T lymphocyte; 3 nM, 5 μg/ml Concanavalin A, relative to non-treated group) was 77% and the “Proliferation (%) T cell” value (T lymphocyte; 10 nM, Concanavalin A) was 46%. For the same molecule, the “Proliferation (%) T cell” value (T lymphocyte; 30 nM, Concanavalin A) was 4%, the “Proliferation (%) T cell” value (T lymphocyte; 100 nM, Concanavalin A) was 2% and the “suppression percentage, T lymphocyte induced by concanavalin A” value (T lymphocyte; 30–100 nM) was 96–98%. The “effect on proliferation and activity of T lymphocytes” value (T lymphocyte; non-cytotoxic concentrations) was “potential suppressive effect”, the “concentration with no cytotoxic effects” value [2] was “less than 100 nM” and the viability at 1 day, 0.003 µM ([3]; 3 nM, 1st day after treatment, based on initial viability) was 96%. For the same molecule, the viability at 2 day, 0.003 µM ([3]; 3 nM, 2nd day after treatment, based on initial viability) was 86%, the viability at 3 day, 0.003 µM ([3]; 3 nM, 3rd day after treatment, based on initial viability) was 79% and the viability at 1 day, 0.01 µM ([3]; 10 nM, 1st day) was 89%. The viability at 2 day, 0.01 µM ([3]; 10 nM, 2nd day) was 82%, the viability at 3 day, 0.01 µM ([3]; 10 nM, 3rd day) was 79% and the viability at 1 day, 0.03 µM ([3]; 30 nM, 1st day) was 89%. It also gave a viability at 2 day, 0.03 µM ([3]; 30 nM, 2nd day) of 70%, a viability at 3 day, 0.03 µM ([3]; 30 nM, 3rd day) of 81% and a viability at 1 day, 0.1 µM ([3]; 100 nM, 1st day) of 82%. It also gave a viability at 2 day, 0.1 µM ([3]; 100 nM, 2nd day) of 70%, a viability at 3 day, 0.1 µM ([3]; 100 nM, 3rd day) of 70% and a viability at 1 day, 0.3 µM ([3]; 300 nM, 1st day) of 68%. For the same molecule, the viability at 2 day, 0.3 µM ([3]; 300 nM, 2nd day) was 14%, the viability at 3 day, 0.3 µM ([3]; 300 nM, 3rd day) was 18% and the viability at 1 day, 1000 nM ([3]; 1,000 nM, 1st day) was 74%. The viability at 2 day, 1000 nM ([3]; 1,000 nM, 2nd day) was 14%, the viability at 3 day, 1000 nM ([3]; 1,000 nM, 3rd day) was 14% and the viability at 1 day, 3000 nM ([3]; 3,000 nM, 1st day) was 61%. The viability at 2 day, 3000 nM ([3]; 3,000 nM, 2nd day) was 9%, the viability at 3 day, 3000 nM ([3]; 3,000 nM, 3rd day) was 8% and the viability at 1 day, 10000 nM ([3]; 10,000 nM, 1st day) was 32%. It also gave a viability at 2 day, 10000 nM ([3]; 10,000 nM, 2nd day) of 4%, a viability at 3 day, 10000 nM ([3]; 10,000 nM, 3rd day) of 4% and a viability at 1 day, 30000 nM ([3]; 30,000 nM, 1st day) of 4%. The viability at 2 day, 30000 nM ([3]; 30,000 nM, 2nd day) was 4%, the viability at 3 day, 30000 nM ([3]; 30,000 nM, 3rd day) was 4% and the “Proliferation (%) B/T cells” value (B and T lymphocytes [4]; 3 nM, 5 μg/ml Pokeweed mitogen, relative to non-treated group) was 100%. For the same molecule, the “Proliferation (%) B/T cells” value (B and T lymphocytes [4]; 10 nM, Pokeweed mitogen) was 86%, the “Proliferation (%) B/T cells” value (B and T lymphocytes [4]; 30 nM, Pokeweed mitogen) was 55% and the “Proliferation (%) B/T cells” value (B and T lymphocytes [4]; 100 nM, Pokeweed mitogen) was 17%. The “suppression of proliferation of B/T lymphocytes induced by pokeweed mitogen” value (B and T lymphocytes [4]; 30–100 nM) was 45–83%, the “Immune Response (%) B/T cells” value (B and T lymphocytes [5]; 3 nM, antibody production, fifth day after sheep red blood cells, relative to untreated lymphocytes) was 81% and the “Immune Response (%) B/T cells” value (B and T lymphocytes [5]; 10 nM, fifth day) was 74%. For the same molecule, the “Immune Response (%) B/T cells” value (B and T lymphocytes [5]; 30 nM, fifth day) was 64%, the “Immune Response (%) B/T cells” value (B and T lymphocytes [5]; 100 nM, fifth day) was 34% and the “Wt. (mg) of Lymphatic node” value (T lymphocytes; 10 mg/kg peritoneally for five days) was 1.12 mg. The “Wt. (mg) of Lymphatic node” value (T lymphocytes; 30 mg/kg peritoneally for five days) was 0.98 mg and the “immune response of T lymphocytes in graft versus host reaction” value (T lymphocytes; peritoneal injection for five days) was “potentially suppress”.
